Experimental data reported in patent publication US6133313A, “Insecticidal avocadofurans and triolein” (The Regents of the University of California, priority 1998, dated 2000).
Entries after “also recorded” stand apart in the source; their conditions may differ.

Assays:
[1] = in words; cited from earlier work
[2] = test system: S. exigua larvae; experiment: toxicity of furan analogs of variable side chain length in diet assay; format: in vivo, Spodoptera exigua; settings: 5 μmoles g^-1 diet
Procedure: To determine the toxicity of avocadofurans and their furan analogs, five saturated furans of variable side chain lengths, namely 2-(tetradecyl)furan compound (20), 2-(pentadecyl)furan (1), 2-(hexadecyl)furan compound (21), 2-(heptadecyl)furan (4), and 2-(octadecyl)furan compound (22) were tested for their activity against S. exigua in diet assay. Diets for treatments were prepared at a concentration known to be insecticidal against S. exigua early instar of 5 μmoles g^-1 diet. To compare toxicity among furans, concentration in μmoles g^-1 diet were adjusted according to the molecular weights of individual furans.
Five saturated furans of variable side chain lengths: 2-(tetradecyl)furan (20), 2-(pentadecyl)furan (1), 2-(hexadecyl)furan (21), 2-(heptadecyl)furan (4), and 2-(octadecyl)furan (22) were tested for activity against S. exigua in diet bioassays. Treated diets were prepared at a concentration known to be insecticidal against S. exigua early instars (5 μmoles g^-1 diet). To compare toxicity among furans, concentrations in μmoles g^-1 of diet were used to compensate for their different molecular weights.
Each furan compound was transferred into a 50-ml polypropylene centrifuge tube (Fisher, Pittsburgh Pa.), added 2 ml of 0.1% Tween-80 solution (Fisher), homogenized with an ultrasonic homogenizer (Cole-Parmer, Chicago, Ill.), and artificial diet was added to produce a final weight of 15 g. The mixture was vortexed for 3 mm. Control diet was prepared by mixing 2 ml of Tween solution with 13 g of artificial diet to produce a final weight of 15 g. Control and treated diets were poured into 16-well bioassay trays (C-D International Inc., Pitman N.J.). One neonate was added per well. Trays were placed in an incubator set for conditions described previously. Twenty-four neonates were tested for each treatment. Each treatment was replicated four times (total of 96 larvae/treatment). Larval mortality and weight were recorded after 9 days.

[3] = test system: S. exigua larvae; experiment: growth inhibition and mortality of synthetic avocadofurans and triolein in diet bioassay; format: in vivo, Spodoptera exigua; settings: 3,500 μg/g
[4] = test system: S. exigua larvae; experiment: as above; format: in vivo, Spodoptera exigua; parameters: key to GI (growth index): growth index calculated per J. Chem. Ecol. 19:1109 (1993), imax = 3; settings: for 7-d Instar / 7-d Larval Weight: mean ± SE
Procedure: S. exigua larvae were used in all experiments. Larvae were reared on artificial diet modified from U.S.D.A. Agric. Res. Serv., Prod. Res. Rep., 1208:1 (1969), and maintained at 28+2° C., 14:10; light:dark (L:D) photoperiod.
The colony was collected from Orange Co., Calif. and had new genetic material added within 12 months prior to the study. The age of the cohorts tested was standardized by using neonates within 12 hours of eclosion. All bioassays were maintained at 28+2° C. 75% relative humidity (RH), and at 14:10 (L:D) photoperiod with fluorescent lighting.
The insecticidal activity of the fractions was tested with artificial diet bioassays. Treated diets were prepared by transferring 750 μl of acetone solutions of each fraction (equivalent to 300 mg crude idioblast cell oil) into 50-ml polypropylene centrifuge tubes (Fisher, Pittsburgh Pa.), evaporating the acetone, adding 2 ml of 0.1% Tween-80 solution (Fisher), homogenizing with an ultrasonic homogenizer (Co le-Parmer, Chicago Ill.), and adding prepared diet to produce a final weight of 15 g containing the equivalent of 2% idioblast oil. The mixture was vortexed for 3 mm.
Control diet was prepared by mixing 2 ml of Tween solution and 13 g of artificial diet to produce a final weight of 15 g. Control and treated diets were poured into 24-well (15.9 mm diameter and 15.9 mm depth) bioassay trays (C-D International Inc., Pitman N.J.). One neonate was added per well, and trays were placed in an incubator under the previously described conditions. Twenty-four neonates were tested for each fraction and control. Mortality and larval weights were recorded after 7 days.
The effect of the synthetically produced avocado furan compounds (>95% purity) and commercially available triolein (Sigma, St. Louis, Mo.) were tested on larval growth and mortality of S exigua. Treated and control diet were prepared as previously described.
Six different compound concentrations, chosen on the basis of studies with the oil fractions, were evaluated for both 2-(pentadecyl)furan and 2-(heptadecyl)furan: 0 (control), 600, 750, 900, 1050, and 1200 μg/g. Also, six concentrations of triolein (subfraction 1-1-12) were tested: 0 (control), 7000, 8000, 9000, 10000, and 11000 μg/g.
Twenty-four neonates were used per treatment. Bioassays were conducted as described in Example 4, and replicated 4 times for each concentration (i.e., a total of 96 larvae were tested for each concentration). Larval weight, instar, and mortality were recorded after 7 days […].
(§1) EC (effective concentration) values were calculated by subtracting the mean larval weight for each treatment from the mean weight of the controls, and dividing by the mean weight of the controls. LC (lethal concentration) values were obtained using probit analysis as described in Probit Analysis (1971) Cambridge University Press, Cambridge, UK. GI (growth index) and RGI (relative growth index) values were calculated as described in J. Chem. Ecol., 19:1109 (1993), but using an imax of 3 (the stage attained by most control larvae after 7 d). Statistical comparisons were conducted using SuperAnova Abacus Concept Inc., Berkeley, Calif. (1989).

[5] = test system: Bombyx mori L. larvae; settings: 4th instar, within 2 days; cited from earlier work
[6] = test system: Colletotrichum gloeosporioides; settings: in words; cited from earlier work
[7] = test system: S. exigua; experiment: synergistic/joint toxicity of avocadofuran and triolein combinations; format: in vivo, Spodoptera exigua
From the text: The treatments were as follows: Control, 2-(pentadecyl)furan, 2-(heptadecyl)furan, triolein, individually, and 2-(pentadecyl)furan combined with 2-(heptadecyl)furan and triolein, 2-(pentadecyl)furan combined with triolein, and 2-(heptadecyl)furan combined with triolein. Because the combined LC25 s for both avocadofurans exceed their LC50 values, a concentration for each was adjusted so that when added it would approximate the value of the avocadofurans LC50 (see Table 2). These concentrations were used whenever both avocadofurans were combined in the same treatment. Treatments were replicated four times, with 15 larvae per replicate to a total of 60 larvae/treatment.
Joint effects were determined by testing all combinations of LC25 s (estimated from probit lines shown in Table 1) of the three compounds for toxicity to S. exigua. The treatments were: control, 2-(pentadecyl)furan, 2-(heptadecyl)furan, triolein, 2-(pentadecyl)furan+triolein, 2-(heptadecyl)furan+triolein, and 2-(pentadecyl)furan+2-(heptadecyl)furan+triolein. Because the combined LC25 s for both avocadofurans exceeded their LC50 values (due to a steep slope of their LC lines), a concentration for each was used so that when added together it would approximate the value of the avocadofurans LC50 (Table 1). These concentrations were used whenever both avocadofurans were combined in the same treatment.
Treatments were replicated four times, with 15 larvae per replicate (total of 60 larvae/treatment). Dietary treatment preparations and bioassay procedures were conducted as described in Example 4. For each diet treatment, 9-d larval instar and weight, pupal weights, times to pupation, and larval mortality were recorded.

[8] = test system: neonate S. exigua; experiment: individual toxicity of avocadofurans and triolein in artificial diet; format: in vivo, Spodoptera exigua
Procedure: In this study, individual activity of avocadofurans was investigated quantitatively. For this purpose, eight concentrations of the avocadofurans (1) and (4) and triolein (8) were tested. Results are seen in FIG. 6.
Following pilot studies, eight concentrations of each were tested: 0, 0.5, 1, 1.5, 2, 2.5, 3, and 3.5 μmoles g^~1 diet. Also, five concentrations of triolein were tested: 0; 1,000; 2,000; 3,000; and 4,000 μg g^~1 diet. Because triolein was not compared to a structurally similar compound, a more standard dietary formulation of μg g-^1 was used rather than ^~ moles g^-1 in all triolein-treated bioassays.
Treated and control diet were prepared as described above. For each concentration the compounds were dissolved in 10 ml of Tween solution and mixed using an ultrasonic homogenizer. Untreated diet was added to make a total of 100 g and then vortexed for 3 mm. Control diet was prepared by mixing 10 ml of the Tween solution with 90 g of artificial diet to produce a final weight of 100 g. Control and treated diets were poured into 30 ml plastic cups. One neonate was placed in each cup and cups were held in an incubator. Fifteen larvae were tested at each concentration, and assays were replicated 4 times (total of 60 larvae/treatment). For each diet treatment, 9-d larval instar and weight, pupal weights, times to pupation, and larval mortality were recorded.
as §1

[9] = test system: Staphylococcus aureus; settings: in words; cited from earlier work
[10] = test system: Bacillus subtilis; settings: in words; cited from earlier work
[11] = lowest concentration vs controls

For `C#CCCCCCCCCCCCC(O)CC(O)COC(C)=O` (stereo not shown) [1-acetoxy-2,4-dihydroxyheptadec-16-yne], the “fungicidal / antifungal activity” value [1] is listed as “antifungal activity”.

With `CCCCCCCCCCCCCCc1ccco1` [2-(tetradecyl)furan] the “effect on mortality (FIG. 5A)” value ([2]; 9 d, in words) was “had the lowest activity”, the “effect on 9-day larval weight (FIG. 5B)” value ([2]; in words) was “significantly reducing larval weight compared to the control” and the mortality at 5 µmol/g ([2]; Spodoptera exigua, feed or water, 216 h, 9 d, read-out: mortality of S. exigua larvae (FIG. 5A)) was < 50%.

In the case of `CCCCCCCCCCCCCCCCc1ccco1` [2-(hexadecyl)furan], the “effect on 9-day larval weight (FIG. 5B)” value ([2]; in words) is reported as “comparable to the best compound described above, namely compound (1)”.

With `CCCCCCCCCCCCC/C=C/c1ccco1` [2-(1E-pentadecenyl)furan] the “reduction of larval growth compared to controls” value [3] was 57.3%, the mortality at 3500 µg/g ([4]; Spodoptera exigua, feed or water, 3,500 μg/g) was 12.5% and the “concentration at which S. exigua growth is inhibited / compound active” value ([4]; lowest active concentration, in diet) was ≥ 3,500 μg/g.

For `C=CCCCCCCCCCCCC(O)CC(O)COC(C)=O` (stereo not shown) [1-acetoxy-2,4-dihydroxy-n-heptadec-16-ene], the “fungicidal / antifungal activity” value [1] is given as “active as a fungicide”.

In the case of `CCCCC/C=C\C/C=C\CCCCCCCC(=O)CC(O)COC(C)=O` (single isomer, unassigned) [persin, 1-acetoxy-2-hydroxy-4-oxo-heneicosa-(12Z,15Z)-diene], the “concentration at which growth inhibited” value [5] is given as 200 µg/g and the antifungal activity [6] is given as “antifungal activity”.

For `C=CCCCCCCCCCCCC(O)CC(O)CO` (stereo not shown) [1,2,4-trihydroxy-n-heptadec-16-ene], the “fungicidal / antifungal activity” value [1] is listed as “antifungal activity”.

For `CCCCCCCCCCCCCCCCCCc1ccco1` [2-(octadecyl)furan], the “effect on 9-day larval weight (FIG. 5B)” value ([2]; in words) was “comparable to the best compound described above, namely compound (1)”.

For `CCCCCCCCCCCCCCCc1ccco1` [2-(pentadecyl)furan (1), 2-(pentadecyl)furan], the “Mortality (%) using LC25” value ([7]; in vivo) was 36.7%, the Survival to pupation ([7]; in vivo) was 63.3% and the “Weight, 9-d larvae” value ([7]; mean ± spread) was 22.4 ± 2.9 mg. For the same compound, the “Weight, Pupae” value ([7]; mean ± spread) was 104.3 ± 3.2 mg, the Developmental times ([7]; neonate-pupa, in d (unit assumed)) was 19.8 ± 0.7 and the “growth inhibition (FIG. 6A)” value ([8]; 1.5 μmoles g^-1 or higher, 9 d) was “more than 50%”. The “LC25 (95% FL)” value ([8]; avocadofurans, larval stage) was 1.76(1.55-1.93) μmoles g^-1 of diet, the “LC50 (95% FL)” value ([8]; avocadofurans, larval stage) was 2.24(2.08-2.39) μmoles g^-1 of diet and the “effect on pupal weight (FIG. 7)” value ([8]; in words) was “significantly reduced”. For the same compound, the “larval developmental time from neonate to pupa (FIG. 8)” value ([8]; in words) was “significantly prolonged”, the “Relative Growth Index (RGI) (FIG. 10)” value ([8]; in words, increasing concentrations) was “decreased with increasing concentrations” and the “LC50” value ([8]; larval stage) was 2.2 μmoles g^-1 diet. The “concentration significantly reducing 9-day larval weight (FIG. 6A)” value [8, 11] was ≥ 1.5 µmol/g, the “concentration significantly reducing pupal weight (FIG. 7A)” value [8, 11] was ≥ 3 µmol/g and the “GI (growth index)” value ([4]; 600 μg/g) was 0.69. For the same compound, the “percent reduction in larval weight vs control” value (from here on “percent reduction”) ([4]; 600 μg/g) was 72.89%, the “7-d Instar” value ([4]; 600 μg/g) was 2.29 ± 0.07 and the “7-d Larval Weight” value ([4]; 600 μg/g) was 8.50 ± 0.95 mg. For the same compound, the “GI (growth index)” value ([4]; 750 μg/g) was 0.55, the “percent reduction” value ([4]; 750 μg/g) was 85.83% and the “7-d Instar” value ([4]; 750 μg/g) was 2.04 ± 0.07. The “7-d Larval Weight” value ([4]; 750 μg/g) was 4.44 ± 0.45 mg, the “GI (growth index)” value ([4]; 900 μg/g) was 0.26 and the “percent reduction” value ([4]; 900 μg/g) was 90.35%. The “7-d Instar” value ([4]; 900 μg/g) was 1.74 ± 0.07, the “7-d Larval Weight” value ([4]; 900 μg/g) was 3.03 ± 0.35 mg and the “GI (growth index)” value ([4]; 1050 μg/g) was 0.25. The “percent reduction” value ([4]; 1050 μg/g) was 95.50%, the “7-d Instar” value ([4]; 1050 μg/g) was 1.61 ± 0.07 and the “7-d Larval Weight” value ([4]; 1050 μg/g) was 1.41 ± 0.15 mg. For the same compound, the “GI (growth index)” value ([4]; 1200 μg/g) was 0.15, the “percent reduction” value ([4]; 1200 μg/g) was 95.78% and the “7-d Instar” value ([4]; 1200 μg/g) was 1.56 ± 0.09. The “7-d Larval Weight” value ([4]; 1200 μg/g) was 1.32 ± 0.19 mg, the mortality at 600 µg/g ([4]; Spodoptera exigua, feed or water, 168 h, 600 μg/g, 7 d) was 9.37% and the mortality at 750 µg/g ([4]; Spodoptera exigua, feed or water, 168 h, 750 μg/g, 7 d) was 18.8%. It also gave a mortality at 900 µg/g ([4]; Spodoptera exigua, feed or water, 168 h, 900 μg/g, 7 d) of 32.3%, a mortality at 1050 µg/g ([4]; Spodoptera exigua, feed or water, 168 h, 1050 μg/g, 7 d) of 54.2% and a mortality at 1200 µg/g ([4]; Spodoptera exigua, feed or water, 168 h, 1200 μg/g, 7 d) of 71.9%. The “reduction of larval development” value ([4]; concentrations above 600 μg/g) was > 70%, the “LC50 (95% FL)” value ([4]; in diet) was 1031 µg/g and the “inhibition of larval growth” value ([4]; in words) was “significantly inhibited larval growth”. The “comparative toxicity and growth inhibition” value ([4]; in words, listed as 1) was “more toxic and growth inhibitory to S. exigua than either of the unsaturated compounds (2) and (6); also recorded: the most toxic”, the “comparative toxicity and growth inhibition” value ([4]; in words, listed as 2-(pentadecyl)furan) was “most active of the two major compounds from that subfraction” and the “Relative Growth Index (RGI) vs log concentration regression (FIG. 4)” value ([4]; log (μg/g)) was “y=5.66-1.79*log(x), r^2 =0.94”.

For `C=CCCCCCCCCCCCc1ccco1` [2-(trideca-12-enyl)furan], the growth inhibitory activity [9] is given as “growth inhibitory activity” and the growth inhibitory activity [10] is given as “growth inhibitory activity”.

For `C#CCCCCCCCCCCCC(O)CC(O)CO` (stereo not shown) [1,2,4-trihydroxyheptadec-16-yne], the “fungicidal / antifungal activity” value [1] is given as “antifungal activity”.
